Legend:
D(1B) dopamine receptor = D(1B) dopamine receptor (Homo sapiens, UniProt P21918); assay: Binding affinity for human recombinant dopamine receptor D5
D(4) dopamine receptor = target: T1, D(4) dopamine receptor (Homo sapiens, UniProt P21917); assay: Binding affinity for human recombinant dopamine receptor D4.4
T1 sequence (P21917 whole entry): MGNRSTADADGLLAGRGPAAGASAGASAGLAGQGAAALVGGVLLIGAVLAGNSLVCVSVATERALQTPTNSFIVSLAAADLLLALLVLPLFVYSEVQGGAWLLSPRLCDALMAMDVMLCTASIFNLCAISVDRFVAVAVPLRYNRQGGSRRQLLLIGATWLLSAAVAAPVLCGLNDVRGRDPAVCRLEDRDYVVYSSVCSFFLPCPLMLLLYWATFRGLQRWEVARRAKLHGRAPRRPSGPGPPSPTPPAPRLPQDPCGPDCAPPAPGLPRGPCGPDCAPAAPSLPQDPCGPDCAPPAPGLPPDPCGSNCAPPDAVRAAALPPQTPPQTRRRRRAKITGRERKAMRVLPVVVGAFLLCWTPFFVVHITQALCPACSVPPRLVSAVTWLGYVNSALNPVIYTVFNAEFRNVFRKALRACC

D(2) dopamine receptor = D(2) dopamine receptor (Homo sapiens, UniProt P14416); assay: Binding affinity for human recombinant dopamine receptor D2L
Chain of D(2) dopamine receptor (P14416 whole entry): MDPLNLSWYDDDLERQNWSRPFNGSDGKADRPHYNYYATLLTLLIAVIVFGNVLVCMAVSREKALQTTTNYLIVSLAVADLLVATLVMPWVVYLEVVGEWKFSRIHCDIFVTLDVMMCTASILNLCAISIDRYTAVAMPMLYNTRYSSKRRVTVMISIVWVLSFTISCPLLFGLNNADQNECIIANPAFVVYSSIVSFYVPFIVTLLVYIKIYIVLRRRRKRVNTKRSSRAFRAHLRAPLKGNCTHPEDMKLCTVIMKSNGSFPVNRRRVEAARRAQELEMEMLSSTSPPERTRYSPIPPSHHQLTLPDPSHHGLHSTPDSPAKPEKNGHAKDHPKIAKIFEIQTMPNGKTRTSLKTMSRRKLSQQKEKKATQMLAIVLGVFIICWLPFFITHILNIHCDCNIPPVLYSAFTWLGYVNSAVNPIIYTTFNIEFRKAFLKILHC

D(1A) dopamine receptor = D(1A) dopamine receptor (Homo sapiens, UniProt P21728)
Chain of D(1A) dopamine receptor (P21728 whole entry): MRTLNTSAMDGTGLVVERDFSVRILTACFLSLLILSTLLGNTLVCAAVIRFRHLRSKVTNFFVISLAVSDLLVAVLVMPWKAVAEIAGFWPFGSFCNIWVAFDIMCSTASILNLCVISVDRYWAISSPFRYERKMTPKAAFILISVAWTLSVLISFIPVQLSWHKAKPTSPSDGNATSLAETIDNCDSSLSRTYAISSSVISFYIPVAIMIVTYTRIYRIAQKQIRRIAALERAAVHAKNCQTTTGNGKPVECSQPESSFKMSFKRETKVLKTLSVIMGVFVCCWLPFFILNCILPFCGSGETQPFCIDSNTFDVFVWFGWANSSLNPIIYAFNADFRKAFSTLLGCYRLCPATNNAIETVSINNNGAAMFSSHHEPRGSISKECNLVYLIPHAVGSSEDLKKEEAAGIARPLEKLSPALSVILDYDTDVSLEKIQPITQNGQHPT
Description: Binding affinity for human recombinant dopamine receptor D1

D(3) dopamine receptor = D(3) dopamine receptor (Homo sapiens, UniProt P35462)
Chain of D(3) dopamine receptor (P35462 whole entry): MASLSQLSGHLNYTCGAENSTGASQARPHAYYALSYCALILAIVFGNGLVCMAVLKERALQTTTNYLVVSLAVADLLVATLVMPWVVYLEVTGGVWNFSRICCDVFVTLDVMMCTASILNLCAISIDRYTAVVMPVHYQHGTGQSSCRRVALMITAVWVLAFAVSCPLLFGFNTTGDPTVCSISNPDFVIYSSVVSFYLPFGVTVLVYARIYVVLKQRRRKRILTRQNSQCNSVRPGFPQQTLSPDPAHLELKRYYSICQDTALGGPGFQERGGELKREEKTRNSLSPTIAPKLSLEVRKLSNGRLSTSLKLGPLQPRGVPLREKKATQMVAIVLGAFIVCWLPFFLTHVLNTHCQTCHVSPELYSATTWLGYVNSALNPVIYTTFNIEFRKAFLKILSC
Description: Binding affinity for human recombinant dopamine receptor D3

Chain of D(1B) dopamine receptor (P21918 whole entry): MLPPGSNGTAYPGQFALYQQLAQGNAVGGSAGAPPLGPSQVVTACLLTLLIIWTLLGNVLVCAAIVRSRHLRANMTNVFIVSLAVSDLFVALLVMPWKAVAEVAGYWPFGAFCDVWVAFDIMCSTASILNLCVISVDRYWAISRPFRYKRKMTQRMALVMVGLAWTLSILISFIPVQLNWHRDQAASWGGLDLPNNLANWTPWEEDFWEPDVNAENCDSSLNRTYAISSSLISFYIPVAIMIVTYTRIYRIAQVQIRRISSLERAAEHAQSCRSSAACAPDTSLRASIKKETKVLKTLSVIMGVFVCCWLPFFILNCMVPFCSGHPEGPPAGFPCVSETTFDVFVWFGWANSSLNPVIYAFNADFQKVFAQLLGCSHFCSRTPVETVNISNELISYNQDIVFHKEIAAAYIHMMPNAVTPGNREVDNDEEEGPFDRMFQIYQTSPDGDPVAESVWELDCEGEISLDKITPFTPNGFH

Row | SMILES | Ki (D(1B) dopamine receptor) | Ki (D(4) dopamine receptor) | Ki (D(2) dopamine receptor) | Ki (D(1A) dopamine receptor) | Ki (D(3) dopamine receptor)
1 | COc1ccc2c(c1)OCCN(C)CCc1ccccc1C2 | 1.8 nM | 546 nM | 158 nM | 35.5 nM | 1600 nM
2 | CN1CCOc2cc(O)ccc2Cc2ccccc2CC1 | 0.57 nM | 375 nM | 274 nM | 3.2 nM | 1380 nM
3 | c1ccc(Cc2ccccc2OCCN2CCN(c3ccccc3)CC2)cc1 | 620 nM | > 10000 nM | 4190 nM | 1480 nM | 2860 nM
4 | CC1CN(CCOc2ccccc2Cc2ccccc2)CCO1 (stereo not given) |  | > 10000 nM | > 10000 nM | 1680 nM | > 10000 nM
5 | OC(c1ccccc1)c1ccccc1OCCN1CCCC1 (stereo not given) |  | > 10000 nM | 6280 nM | 2620 nM | > 10000 nM
6 | c1ccc(Cc2ccccc2OCCCN2CCCC2)cc1 | 113 nM | 1260 nM | 1010 nM | 113 nM | 2920 nM
7 | c1ccc(Cc2ccccc2NCCN2CCCC2)cc1 |  | > 10000 nM | > 10000 nM | > 10000 nM | 4650 nM
8 | c1ccc(Cc2ccccc2OCCN2CCCCC2)cc1 | 43 nM | 4480 nM | 1020 nM | 33.7 nM | 7800 nM
9 | O=C(c1ccccc1)c1ccccc1OCCN1CCCC1 |  | > 10000 nM | 5320 nM | 1650 nM | 2410 nM
10 | c1ccc(Cc2ccccc2OCCN2CCOCC2)cc1 | 366 nM | 6480 nM | > 10000 nM | 201 nM | > 10000 nM
11 | c1ccc(Cc2ccccc2OCCN2CCCC2)cc1 | 951 nM | 1430 nM | > 10000 nM | 379 nM | 1820 nM
12 | CCN(CC)CCOc1ccccc1Cc1ccccc1 [ETOLOXAMINE] |  | > 10000 nM | 2020 nM | 1960 nM | 4670 nM
13 | CN(C)CCOc1ccccc1Cc1ccccc1 [PHENYLTOLOXAMINE] | 414 nM | 2760 nM | 2740 nM | 343 nM | > 10000 nM

— ChEMBL document CHEMBL1138672, “Dopamine/serotonin receptor ligands. 9. Oxygen-containing midsized heterocyclic ring systems and nonrigidized analogues. A step toward dopamine D5 receptor selectivity” (J Med Chem, 2004)
